Here are results for one molecule from patent US11891644B2, “T cells with reduced surface fucosylation and methods of making and using the same” (Seagen Inc., priority 2017, dated 2024).

In one assay the test system is A20 mouse lymphoma cells. As to the kind of experiment: Growth of s.c. implanted A20 lymphoma in Balb/c mice receiving 2FF in drinking water. It counts as in vivo, mouse (Balb/c). As to conditions: 20 mM 2FF in drinking water from day 0; s.c. A20 tumors, 20 days; versus control group (FIG. 2). As for the experimental part: 20 Balb/c mice were implanted with A20 cells (0.2 mL of 5×10^6 cells s.c./mouse), one group of mice consisting of 10 animals received 2FF (20 mM in drinking water) from day 0 to termination of study. A20 lymphoma tumors were allowed to grow out and mice sacrificed after 20 days.

The subject of another assay is CD3+ T cells. As to the kind of experiment: Surface fucosylation of CD3+ T cells isolated from spleens of A20 tumor bearing mice, flow cytometry (surface LCA staining). As to conditions: T cells from A20 tumor bearing mice treated with 20 mM 2FF in drinking water, LCA staining (FIG. 3). It counts as in vivo, mouse (Balb/c). As for the experimental part: Mice from the untreated and 2FF treated group were sacrificed and spleens taken for CD3 T-cell enrichment. In brief spleens were collected in RPMI containing 2% FBS and cell suspensions passed through a 70 μm mesh nylon strainer washed with 2% RPMI. Cells were suspended in 10 mls of ACK lysis buffer and incubate for 5 min in this buffer to get rid of RBCs. Cells were centrifuged at 300×g for 5 minutes and re-suspended in PBS containing 2% FBS and 1 mM EDTA. T-cells were isolated using EasySep mouse T cell isolation kit as per the manufactures recommendation. Briefly, cells were re-suspended at 10^8 cells/mL to which 50 μL/mL of rat serum was added. Cells were then transferred into a 5 mL polystyrene tube and 50 μL of isolation cocktail added to the sample followed by room temperature incubation for 10 minutes. Rapid spheres were vortexed and 75 μL/mls added followed by room temperature incubation for 2.5 minutes. Sample volume was topped off to 2.5 mL and incubated with the cell isolation magnet for 2.5 minutes. The magnet was inverted and CD3^+ T cells collected and washed twice in RPMI and resuspended at 21.2×10^6 cells/ml.
On the technique in general: In flow cytometry, cells or beads pass a laser one at a time.

The next assay concerns A20 cells. As to the kind of experiment: Anti-tumor activity of purified T cells or 2FF in s.c. A20 tumor bearing Balb/c mice. As to conditions: treatment started at 100 mm^3 tumor; daily 20 mM 2FF in drinking water, or 2×10^6 T cells IP; versus untreated animals or T cells from untreated tumor bearing mice. It counts as in vivo, mouse (Balb/c). The procedure:
One group received no treatment, the other three group were treated when the A20 cells reached 100 mm^3 and were treated either with daily 20 mM 2FF in the drinking water, 2×10^6 T-cells isolated from control tumor bearing mice injected IP, or 2×10^6 T-cells isolated from 2FF tumor bearing mice injected IP. Animals were monitored for subsequent tumor progression.

In a further assay the test system is primary human T cells. Briefly: Ex-vivo expansion of human peripheral T cells with 2FF, surface fucosylation by flow cytometry (LCA surface staining). The settings on record: 100 μM 2FF, 10 days in culture, CD3/CD28 beads + IL2; LCA surface staining (FIG. 4). It counts as cell-based. As for the experimental part: T cells were isolated from 10 mL of whole blood which was centrifuged first at 1200 rpm (300×g) for 10 min (without brakes). The top layer containing platelets was removed carefully without disrupting the white blood cell layer. Then RosetteSep™ Human T-Cell Enrichment Cocktail (Pan T Cells from StemCell technologies) was added to the remaining blood (500 μLAO mL blood). This was incubated for 20 min and then 1 mL FBS was added along with 10 mL PBS. Histopaque (20-25 mL) placed in a 50 mL Falcon the prepared blood/PBS solution was overlaid very slowly. This was centrifuged with no brake (25° C., 1500 rpm, 25 min). The top layer was removed and the T cells in the buffy coat layer were then removed to a new 50 mL tube. […]
For in vitro culturing of primary human T cell culture, isolated T cells were re-suspended in T cell media (RPMI media supplemented with 10% Fetal calf serum (FCS), 1% Penicillin and moved into two T25 flasks, one with or and one without 100 μM 2-deoxy-2-fluoro-L-fucose. CD3/CD28 antibody coated beads (20 μL/flask) were added to activate the T cells. After 24 hr interleukin 2 (IL2) was added (100 ng/μL). Each time the cells were passaged new IL2 and 2-deoxy-2-fluoro-L-fucose were added. After 10 days in culture, expanded T cells cultured in 2FF were assessed for changes in surface fucosylation by flow cytometry (FIG. 4).

With `C[C@H](O)[C@@H](O)[C@@H](O)[C@H](F)C=O` [2FF, 2-deoxy-2-fluoro-L-fucose], in the assay on A20 mouse lymphoma cells, the tumor progression entry was “significant delay in tumor progression”. For the same molecule, the “surface fucosylation of isolated CD3+ T cells” value with CD3+ T cells is “significant reduction in surface fucosylation”. Besides, the tumor growth result in the assay with A20 cells was “significantly delayed tumor growth and in some cases tumor regression”. For the same molecule, in the assay with primary human T cells, the “decrease in surface fucosylation” value was “about 85%”.
